Reference: patent publication US20020132817A1, “Heterocyclic compounds, their production and use” (priority 1998, published 2002)

How the values were obtained:
substance P receptor = molecular target: T1, substance P receptor (Homo sapiens, UniProt P25103); assay: Radioligand receptor binding inhibitory activity using receptor from human lymphoblast cells (IM-9); settings: 125I-BHSP radioligand, receptor from IM-9 cells, 25° C. for 30 minutes
T1 construct: The receptor was prepared from human lymphoblast cells (IM-9); endogenous in cells; host or cells: IM-9 human lymphoblast cells (membrane preparation)
Method: Radioligand receptor binding inhibitory activity Binding inhibitory activity using receptor from human lymphoblast cells (IM-9)
The receptor was prepared from human lymphoblast cells (IM-9). IM-9 cells (2×10^5 cells/ml) were inoculated and incubated for 3 days (one liter), which was then subjected to centrifuge for 5 minutes at 500×g to obtain cell pellets. […] The residue was washed twice with 30 ml of the above-mentioned buffer, which was then preserved frozen (−80° C.) as a specimen of the receptor.
The specimen was suspended in a reaction buffer (50 mM Tri-HCl buffer (pH 7.4), 0.02% bovine serum albumin, 1 mM phenylmethylsulfonyl fluoride, […], […] bacitracin, 3 mM manganese chloride) and 100 ul portion was the suspension was used in the reaction. […] The amount of nonspecific binding was determined by adding substance P at a final concentration of 2×10^−6M. After the reaction, using a cell harvester (290 PHD, Cambridge Technology, Inc, U.S.A.), rapid filtration was carried out through a glass filter (GF/B, Whatman, U.S.A.) to stop the reaction. After washing three times with 250 ul of 50 mM of Tris-HCl buffer (pH 7.4) containing 0.02% bovine serum albumin, the radioactivity remaining on the filter was determined with a gamma counter. Before use, the filter was immersed in 0.1% polyethyleneimine for 24 hours and air-dried.

T1 sequence (P25103 whole entry): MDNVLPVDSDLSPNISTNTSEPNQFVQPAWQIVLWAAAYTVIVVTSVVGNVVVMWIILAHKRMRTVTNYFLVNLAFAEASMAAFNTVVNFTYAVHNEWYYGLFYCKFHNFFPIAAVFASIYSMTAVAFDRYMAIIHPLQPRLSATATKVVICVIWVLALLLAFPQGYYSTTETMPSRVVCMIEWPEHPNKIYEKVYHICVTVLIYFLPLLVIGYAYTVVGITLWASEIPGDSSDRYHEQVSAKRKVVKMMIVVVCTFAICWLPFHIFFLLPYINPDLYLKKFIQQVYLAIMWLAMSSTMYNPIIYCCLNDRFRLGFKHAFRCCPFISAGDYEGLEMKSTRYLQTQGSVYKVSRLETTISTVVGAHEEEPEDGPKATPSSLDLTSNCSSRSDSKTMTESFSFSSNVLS

| Structure (SMILES) | IC50 (substance P receptor) | melting point |
| --- | --- | --- |
| CCC1CCn2c(c(-c3ccc(C)cc3)c3cccnc3c2=O)C(=O)N(Cc2cc(C(F)(F)F)cc(C(F)(F)F)c2)C1 (racemic) [Example 15, (±)-7-[3,5-bis(trifluoromethyl)benzyl]-9-ethyl-6,7,8,9,10,11-hexahydro-5-(4-methylphenyl)-6,13-dioxo-13H-[1,4]diazosino[2,1-g][1,7]napththylidine] | 1.1 nM | 258 to 260 °C |
| COc1cc(CN2C[C@H](C)CCn3c(c(-c4ccccc4)c4cccnc4c3=O)C2=O)cc(OC)c1 [Example 5, (9R)-7-(3,5-dimethoxybenzyl)-6,7,8,9,10,11-hexahydro-9-methyl-6,13-dioxo-5-phenyl-13H-[1,4]diazosino[2,1-g][1,7]napththylidine] | 0.48 nM | 199 to 201 °C |
| COc1cc(CN2C[C@H](C)CCn3c(c(-c4ccc(Cl)c(Cl)c4)c4cccnc4c3=O)C2=O)cc(OC)c1 [Example 8, (9R)-7-(3,5-dimethoxybenzyl)-5-(3,4-dichlorophenyl)-6,7,8,9,10,11-hexahydro-9-methyl-6,13-dioxo-13H-[1,4]diazosino[2,1-g][1,7]napththylidine] | 0.05 nM | 207 to 208 °C |
| Cc1ccc(-c2c3n(c(=O)c4ncccc24)CC[C@@H](C)CN(Cc2cc(C)cc(C)c2)C3=O)cc1 [Example 9, (9R)-7-(3,5-dimethylbenzyl)-6,7,8,9,10,11-hexahydro-9-methyl-5-(4-methylphenyl)-6,13-dioxo-13H-[1,4]diazosino[2,1-g][1,7]napththylidine] | 0.86 nM | 200 to 202 °C |
| Cc1ccc(-c2c3n(c(=O)c4ncccc24)CC[C@@H](C)CN(Cc2cc(Cl)cc(Cl)c2)C3=O)cc1 [Example 10, (9R)-7-(3,5-dichlorobenzyl)-6,7,8,9,10,11-hexahydro-9-methyl-5-(4-methylphenyl)-6,13-dioxo-13H-[1,4]diazosino[2,1-g][1,7]napththylidine] | 1 nM | 139 to 141 °C |
| Cc1ccc(-c2c3c(c(=O)n4c2C(=O)N(Cc2cc(C(F)(F)F)cc(C(F)(F)F)c2)CCCC4)CN(C)CC3)cc1 [Reference Example 64, 7-[3,5-Bis(trifluoromethyl)benzyl]-1,2,3,4,6,7,8,9,10,11-decahydro-2-methyl-5-(4-methylphenyl)-6,13-dioxo-13H-[1,4]diazocino[1,2-b][2,7]naphthyridine] | 0.66 nM |  |

Further lines, results first:

| IC50 (substance P receptor) | melting point | Structure (SMILES) |
| --- | --- | --- |
| 0.88 nM | 257 to 258 °C | CC1CCn2c(c(-c3ccccc3)c3cccnc3c2=O)C(=O)N(Cc2cc(C(F)(F)F)cc(C(F)(F)F)c2)C1 (racemic) [Reference Example 69, (+/−)-7-[3,5-Bis(trifluoromethyl)benzyl]-6,7,8,9,10,11-hexahydro-9-methyl-6,13-dioxo-5-phenyl-13H-[1,4]diazocino[2,1-g][1,7]naphthyridine] |
| 0.1 nM | 282 to 283 °C | Cc1ccc(-c2c3n(c(=O)c4ncccc24)CC(O)CN(Cc2cc(C(F)(F)F)cc(C(F)(F)F)c2)C3=O)cc1 (racemic) [Reference Example 79, (+/−)-7-[3,5-Bis(trifluoromethyl)benzyl]-6,7,8,9,10,12-hexahydro-9-hydroxy-5-(4-methylphenyl)-6,12-dioxo[1,4]diazepino [2,1-g][1,7]naphthyridine] |
| 1.6 nM |  | Cc1cnc2c(c1-c1ccccc1)C(=O)N(Cc1cc(C(F)(F)F)cc(C(F)(F)F)c1)CCCO2 [Reference Example 78] |
| 0.2 nM |  | CN1CCN(Cc2cc(-c3ccccc3)c3c(n2)OCCN(Cc2cc(C(F)(F)F)cc(C(F)(F)F)c2)C3=O)CC1 [Reference Example 101, 4-[3,5-Bis(trifluoromethyl)benzyl]-2,3,4,5-tetrahydro-8-(N-methylpiperazinomethyl)-5-oxo-6-phenylpyrido[3,2-f][1,4]oxazepine] |
